According to patent US6716819B2, “Use of xylitol to reduce ionic strength and activate endogenous antimicrobials for prevention and treatment of infections” (University of Iowa Research Foundation, priority 2000, dated 2004):

Legend:
non-CF epithelia = experiment: Transepithelial electrical properties in Ussing chambers; assay type: cell-based, human; details: 10 μM apical, n=9
From the text: (§1) For measurement of transepithelial electrical properties, a few epithelia from each culture preparation were mounted in Ussing chambers and studied as previously described (Zabner, J., J. J. Smith, P. H. Karp, J. H. Widdicombe, and M. J. Welsh. 1998. Loss of CFTR chloride channels alters salt absorption by cystic fibrosis airway epithelia in vitro. Mol. Cell. 2:397-403). Transepithelial resistance was 588±33 Ω·cm^2 (n=9) for non-CF and 493±24 Ω·cm^2 (n=9) for CF epithelia. The decrease in current after apical addition of 10 μM amiloride was 26.9±1.0 μA·cm^−2·hr^−1 (n=9) for non-CF epithelia and 20.0±1.3 μA·cm^−2·hr^−1 (n=9) for CF epithelia.

CF epithelia = experiment: as above; assay type: cell-based, human; details: 10 μM apical, n=9
From the text: as §1

P. aeruginosa = experiment: Growth in carbon-starved M9 media (O.D.); assay type: cell-based; details: M9 media supplemented at 100 mM
Description: FIGS. 5(A-G). […] A, B and C. Growth of P. aeruginosa (A), S. aureus, (B), and coagulase-negative Staphylococcus (C) were measured as O. D. M9 media alone is indicated by open triangle. Xylitol (closed circle), or succinate, mannitol, or sucrose (open circles), were added to M9 media at 100 mM as indicated. D. Nasal swabs were collected and cultured for 3 days in Lauria-Bertani media (open circles), in minimal M9 media (open squares), or in M9 media supplemented with 100 mM xylitol (closed circles). E, F and G. P. aeruginosa (E), S. aureus (F), and coagulase-negative Staphylococcus (G) were cultured in Lauria-Bertani media alone (open triangles), Lauria-Bertani media with 100 mM xylitol (closed circles), and Lauria-Bertani media containing tobramycin or levofloxacin (open circles).
To test the effect of xylitol on growth of different airway pathogens in a carbon-starved media, P. aeruginosa, S. aureus, and coagulase-negative Staphylococcus were grown overnight in Lauria-Bertani medium. The bacteria were then centrifuged and resuspended in M9 media containing either 100 mM succinate, mannitol, or sucrose, respectively, and grown overnight at 37° C. The bacteria were centrifuged and resuspended in M9 media alone. M9 media containing 100 mM xylitol, or 100 mM of the indicated metabolizable sugar, as positive control. The optical density (O.D.) was measured after 0, 1, 2, and 4 hours at 600 nm on a Beckman DU640 Spectrophotometer (Schaumburg, Ill.). To test the antibiotic effect of xylitol, P. aeruginosa, S. aureus, and coagulase-negative Staphylococcus were grown overnight in Lauria-Bertani medium. The bacteria were then centrifuged and resuspended in Lauria-Bertani media with and without 100 mM xylitol. As a positive control, antibiotics with specific activity to each of the bacteria were added to the media (40 μg/ml tobramycin or 40 μg/ml levofloxacin).

Row | Structure (SMILES) | decrease in current after apical addition (non-CF epithelia) | decrease in current after apical addition (CF epithelia) | growth of P. aeruginosa (P. aeruginosa)
1 | N=C(N)NC(=O)c1nc(Cl)c(N)nc1N [amiloride] | 26.9±1.0 μA·cm^−2·hr^−1 | 20.0±1.3 μA·cm^−2·hr^−1 | –
2 | O=C(O)CCC(=O)O [succinate, reference compound] | – | – | allowed bacterial growth
